The record followed here is ChEMBL document CHEMBL1149293, “Identification of 7-phenylaminothieno- [3,2-b]pyridine-6-carbonitriles as a new class of Src kinase inhibitors” (J Med Chem, 2004).

The target of the experiment is Proto-oncogene tyrosine-protein kinase Src (Homo sapiens, UniProt P12931). The experiment in a line: Inhibition of Src kinase.

Where only a bound is given, the exact number is not on record here.

Proto-oncogene tyrosine-protein kinase Src, sequence (P12931 2-536 limits assumed): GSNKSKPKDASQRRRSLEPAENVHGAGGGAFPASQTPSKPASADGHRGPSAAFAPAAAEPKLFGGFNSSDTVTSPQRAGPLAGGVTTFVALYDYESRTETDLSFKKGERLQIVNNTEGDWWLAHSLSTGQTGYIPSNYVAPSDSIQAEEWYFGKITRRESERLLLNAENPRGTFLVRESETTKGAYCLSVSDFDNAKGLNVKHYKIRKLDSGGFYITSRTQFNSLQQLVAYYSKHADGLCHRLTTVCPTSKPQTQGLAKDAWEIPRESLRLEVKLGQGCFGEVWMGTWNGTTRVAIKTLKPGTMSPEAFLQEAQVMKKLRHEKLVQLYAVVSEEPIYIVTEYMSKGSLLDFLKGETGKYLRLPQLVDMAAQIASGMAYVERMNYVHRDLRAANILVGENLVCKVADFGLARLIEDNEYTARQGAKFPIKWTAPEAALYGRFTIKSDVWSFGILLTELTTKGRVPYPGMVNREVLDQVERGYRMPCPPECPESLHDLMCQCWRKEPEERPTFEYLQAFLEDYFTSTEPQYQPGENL

For the molecule `COc1cc(Nc2c(C#N)cnc3c(-c4ccc(CN5CCOCC5)cc4)csc23)c(Cl)cc1Cl`, the IC50 is more than 10 µM.
As to `COc1cc(Nc2c(C#N)cnc3cc(-c4ccccc4N4CCN(C)CC4)sc23)c(Cl)cc1Cl`, the half-maximal inhibitory concentration (IC50) was more than 10 µM.
